According to article PMC8222276 (Communications Biology, 2021):

Legend:
[1] = molecular target: T1, AM1 receptor (CLR-RAMP2) in HUAECs (Homo sapiens, UniProt O60895+Q16602); assay: mobilisation of Ca2+i in HUAECs; type: cell-based
T1 construct: host or cells: primary HUAECs
Description: All cell lines were plated at 20,000 cells/well on 96-well black clear-bottom plates (Costar, UK) 24 h before the experiment. […] Cells were then washed twice with calcium-free HBSS, then were left in 100 μl calcium-free HBSS for the duration of the assay. […] Data was normalised to the response seen with 10 μM Ionomycin.
(§1) All sample sizes were determined, and data analysed, in accordance with the guidelines described by Curtis M et al.[65]. All experiments were appropriately controlled using ‘system pathway’ agonists. If any of these pathway controls generated inappropriate responses, then the entire data set was removed from analysis. […] Data analysis for cAMP accumulation, Ca^2+i mobilisation, NO accumulation, pERK1/2 activation, and cell proliferation assays were performed in GraphPad Prism 8.4 (GraphPad Software, San Diego). Data were fitted to obtain concentration–response curves using either the three-parameter logistic equation using to obtain values of Emax and pEC50 or the operational model of agonism. Statistical differences were analysed using one-way ANOVA followed by Dunnett’s post-hoc (for comparisons amongst more than two groups) or unpaired Student’s t test with Welch’s correction (for comparison between two groups). To account for the day-to-day variation experienced from the cultured cells, we used the maximal level of cAMP accumulation from cells in response to 100 μM forskolin stimulation was used as a reference, 10 μM ionomycin for Ca^2+i assays, 10 μM phorbol 12-myristate 13-acetate (PMA) for pERK1/2 activation, 10 μM acetylcholine for NO production and 10 μM VEGF for cell proliferation. […] Where appropriate the operational model for receptor agonism[27] was used to obtain efficacy (τ) and equilibrium disassociation constant (KA) values. In both cases, this normalisation removes the variation due to differences in days but retains the variance for control values. The means of individual experiments were combined to generate the curves shown. Having obtained values for τ and KA these were then used to quantify signalling bias as the change in Log(τ/KA)[19],[28]. Error for this composite measure was propagated by applying Eq. 1.1 PooledSEM=(SEMA)^2+(SEMB)^2 Where, SEMA and SEMB are the standard error of measurement A and B.
(§2) (1 picture or pasted object on this page, not shown here)

[2] = system: HUAECs; assay: cell proliferation (72 h) of HUAECs; type: cell-based, human; conditions: HUAEC
Description: (§3) Both endothelial cell lines and HCMs were seeded at a density of 2500 cells/well in a clear flat bottom 96-well plate (Corning, UK) and incubated at 37 °C in 5% CO2. After 24 h, cells were exposed to test compounds or vehicle, in complete endothelial cell growth media (HUVECs) or myocyte growth media (HCMs). Cells were incubated for a further 72 h at 37 °C in 5% CO2. After 72 h incubation, 5 μl of Cell Counting Kit–8 (CCK-8, Sigma, UK) was added to each well and cells were then incubated for another 2 h at 37 °C in 5% CO2 and in the dark[61]. The absorbance of each well was measured using a Mithras LB940 microplate reader with an excitation of 450 nm. The absorbance is directly proportional to the number of viable cells. Cell proliferation was calculated as a percentage of number of cells treated with vehicle alone.
as §1, §2

[3] = system: human cardiomyocytes (HCMs); assay: cell proliferation (72 h) of HCMs; type: cell-based; conditions: HCM
Description: (§4) Data are analysed using a three-parameter non-linear regression curve or the operational model of receptor agonism. g, h Signalling bias plots were calculated as ∆Log(τ/KA) (g) or ∆∆Log(τ/KA) (h) for each agonist and for each signalling pathway. […] All data represent mean ± SEM for n repeats.
as §3, §1

[4] = molecular target: T2, AM1 receptor (CLR-RAMP2) in HUVECs (Homo sapiens, UniProt O60895+Q16602); assay: total nitric oxide production in HUVECs; type: cell-based; conditions: HUVEC
T2 construct: HUVECs specifically express the AM1 receptor alone; host or cells: primary HUVECs
Description: as §4, with “g–h” for “g, h”, “Solid arrows indicate known pathways. Dashed arrows” for “All data”, “possible pathways.” for “mean ± SEM for n repeats.”
Endothelial cells and HCMs were cultured as above. 24 h prior to assay cells were plated on Costar 96-well black clear bottom plates at 40,000 cells/well. The assay was performed according to the manufacturer’s protocol. Briefly, cells pre-incubated with NO dye and assay buffer 1 (Fluorometric Nitric Oxide Assay Kit, Abcam, UK) for 30 min at 37 °C in 5% CO2. Any inhibitors requiring 30 min pre-treatment (YM/L-NAME/DMSO control) were added at this point. Ligand stimulation occurred immediately after this for 15 min at 37 °C in 5% CO2. Stain and ligand solution was removed, assay buffer II was added, and wells were read immediately. The absorbance was measured using a Tecan T200 (Thermo Fisher Scientific UK) reader with an excitation/emission of 540/590 nm. Endothelial cell responses were normalised to 10 μM acetylcholine. HCM responses were normalised to 10 μM isoproterenol[63],[64].
as §1

[5] = molecular target: T1, AM1 receptor (CLR-RAMP2) in HUAECs; assay: cAMP accumulation in HUAECs; type: cell-based
Description: All primary cell lines were cultured as above. On the day of the experiment media was removed and cells washed with PBS, before being dissociated with Trypsin-EDTA 0.05% (Gibco, UK) and then resuspended in PBS/BSA (0.1%) (Sigma, UK). Cells were immediately plated for use in cAMP assay as per the manufacturer’s instructions, reagents used were provided by the LANCE® cAMP detection assay kit (PerkinElmer, Boston, MA, USA), in 384 well optiplates (PerkinElmer (Boston, MA, USA)) at 2000 cells/well in 5 μl aliquots. […] Cells were incubated with compound for 30 min prior to adding detection buffer[28],[60]. Plates were incubated for a further 60 min (room temperature) and then read on a plate reader (Mithras LB 940 microplate reader (Berthold technologies, Germany)). All responses were normalised to 100μM forskolin (Tocris, UK). Antagonist studies were performed in the same way through co-stimulation of the relevant concentration. Alongside control-treated cell. Experiments with PTX (Sigma, UK) required pretreatment (16 h) prior to assays.
as §1, with “The means of individual experiments were combined to generate the curves shown.” left out, “Error for this composite measure was propagated by applying Eq. 1.1 PooledSEM=(SEMA)^2+(SEMB)^2 Where, SEMA and SEMB are the standard error of measurement A and B.” left out

[6] = Ca2+i, HUAEC, operational model, mean ± SEM
[7] = proliferation, 72 h, CCK-8, mean ± SEM
[8] = proliferation, 72 h, mean ± SEM of 3-6 data sets
[9] = proliferation, operational model, mean ± SEM
[10] = NO, operational model, mean ± SEM
[11] = cAMP, HUAEC, operational model, mean ± SEM

T2 sequence (Q16602 23-461): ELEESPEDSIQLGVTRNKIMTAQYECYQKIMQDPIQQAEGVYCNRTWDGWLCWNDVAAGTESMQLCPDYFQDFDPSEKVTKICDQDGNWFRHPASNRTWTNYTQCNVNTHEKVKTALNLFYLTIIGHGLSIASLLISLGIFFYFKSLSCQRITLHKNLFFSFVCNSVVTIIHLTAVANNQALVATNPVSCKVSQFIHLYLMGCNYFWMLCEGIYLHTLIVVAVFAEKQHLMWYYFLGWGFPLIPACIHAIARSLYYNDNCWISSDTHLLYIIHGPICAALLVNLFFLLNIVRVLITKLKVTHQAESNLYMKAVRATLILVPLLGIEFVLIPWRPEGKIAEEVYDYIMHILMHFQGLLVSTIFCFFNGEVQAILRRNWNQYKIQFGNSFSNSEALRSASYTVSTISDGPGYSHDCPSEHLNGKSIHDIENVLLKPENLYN
T2 sequence (O60895 43-175): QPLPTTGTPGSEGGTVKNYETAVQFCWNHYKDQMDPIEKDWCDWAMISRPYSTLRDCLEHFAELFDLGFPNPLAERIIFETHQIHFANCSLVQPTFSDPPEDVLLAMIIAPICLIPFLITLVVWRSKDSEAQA
T1 sequence (Q16602 23-461): as the sequence (Q16602 23-461) above
T1 sequence (O60895 43-175): as the sequence (O60895 43-175) above

## CSCC[C@H](NC(=O)[C@H](CC(C)C)NC(=O)[C@H](CCC(N)=O)NC(=O)[C@H](Cc1c[nH]c2ccccc12)NC(=O)[C@H](CC(C)C)NC(=O)[C@H](CCCNC(=N)N)NC(=O)[C@H](Cc1c[nH]cn1)NC(=O)[C@H](CO)NC(=O)[C@H](CC(C)C)NC(=O)[C@H](CC(N)=O)NC(=O)[C@H](CCC(N)=O)NC(=O)[C@@H](NC(=O)[C@H](CCC(N)=O)NC(=O)[C@@H]1CSSC[C@H](NC(=O)CNC(=O)[C@@H](NC(=O)[C@H](CCCNC(=N)N)NC(=O)[C@H](CC(C)C)NC(=O)[C@H](CC(C)C)NC(=O)[C@H](CCC(N)=O)NC(=O)[C@H](C)NC(=O)[C@H](CCC(N)=O)NC(=O)[C@@H](N)[C@@H](C)O)C(C)C)C(=O)N[C@@H](C(C)C)C(=O)N[C@@H](CC(C)C)C(=O)NCC(=O)N[C@@H]([C@@H](C)O)C(=O)N1)C(C)C)C(=O)NCC(=O)N1CCC[C@H]1C(=O)N[C@@H](C)C(=O)NCC(=O)N[C@@H](CCCNC(=N)N)C(=O)N[C@@H](CCC(N)=O)C(=O)N[C@@H](CC(=O)O)C(=O)N[C@@H](CO)C(=O)N[C@@H](C)C(=O)N1CCC[C@H]1C(=O)N[C@H](C(=O)N[C@@H](CC(=O)O)C(=O)N1CCC[C@H]1C(=O)N[C@@H](CO)C(=O)N[C@@H](CO)C(=O)N1CCC[C@H]1C(=O)N[C@@H](Cc1c[nH]cn1)C(=O)N[C@@H](CO)C(=O)N[C@@H](Cc1ccc(O)cc1)C(N)=O)C(C)C [AM2, adrenomedullin 2]
[1]
  Emax: 50.1 ± 3.22%
[1]; Ca2+i, HUAEC, calculated from Table S1
  Transducer coefficient Log(τ/KA): 7.60±0.14
[1]; [6]
  logτ: -0.01±0.05
  pKA: 7.61±0.13
[2]; Growth, calculated from Table S1
  Transducer coefficient Log(τ/KA): 5.81±1.89
[2]; [7]
  Emax: 111.68±1.62%
[2]; [8]
  pEC50: 6.87±0.48
[2]; [9]
  logτ: -1.10±0.26
  pKA: 6.91±1.87
[3]; Growth, calculated from Table S2
  Transducer coefficient Log(τ/KA): 5.78±0.60
[3]; [7]
  Emax: 114.68±3.58%
[3]; [8]
  pEC50: 6.48±0.58
[3]; [9]
  logτ: -0.60±0.12
  pKA: 6.38±0.59
[4]
  Emax: 82.1 ± 4.62%
  order of potencies for NO synthesis: order of potencies AM2 > AM > CGRP
[4]; NO, calculated from Table S1
  Transducer coefficient Log(τ/KA): 6.80±0.17
[4]; [10]
  logτ: 0.65±0.09
  pKA: 6.15±0.15
[5]
  Emax: 17.5 ± 1.21%
[5]; cAMP, HUAEC, calculated from Table S1
  Transducer coefficient Log(τ/KA): 6.03±0.22
[5]; [11]
  logτ: -0.75±0.05
  pKA: 6.78±0.21
